Measurements as given in paper PMC10721786, “Development of a potent benzonitrile-based inhibitor of glutaminyl-peptide cyclotransferase-like protein (QPCTL) with antitumor efficacy” (Signal Transduction and Targeted Therapy, 2023).

What was measured:
QPCTL = molecular target: T1, QPCTL (Homo sapiens, UniProt Q9NXS2); experiment: Enzyme activity assay (fluorescent, H-Gln-AMC / PGPEP I coupled) against QPCTL; assay type: biochemical; conditions: mean ± SD of three independent experiments
T1 construct: made in house; host or cells: Escherichia coli BL21 (DE3)
T1 sequence (Q9NXS2 whole entry): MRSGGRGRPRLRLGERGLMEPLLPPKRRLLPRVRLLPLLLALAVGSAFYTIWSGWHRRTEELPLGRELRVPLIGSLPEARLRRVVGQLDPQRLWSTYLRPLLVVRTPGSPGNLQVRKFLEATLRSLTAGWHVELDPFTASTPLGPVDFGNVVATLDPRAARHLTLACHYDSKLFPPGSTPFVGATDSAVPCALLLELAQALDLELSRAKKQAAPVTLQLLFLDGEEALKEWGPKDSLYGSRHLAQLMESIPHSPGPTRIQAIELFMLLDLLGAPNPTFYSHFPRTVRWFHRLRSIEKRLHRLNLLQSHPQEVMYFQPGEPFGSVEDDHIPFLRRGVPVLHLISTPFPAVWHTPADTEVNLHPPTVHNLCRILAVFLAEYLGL
Experimental: The DNA with sequence coding for the human glutaminyl-peptide cyclotransferase-like protein (nucleotide entry: NP_060129) was synthesized and then inserted into the pGEX-4T-2 vector. The vector was transformed into Escherichia coli BL21 (DE3) competent cells (Tiangen Biotech, Cat. # CB105). The bacteria were grown in LB media containing ampicillin (100 μg/ mL) at 37 °C until the cell density reached an OD600 of 0.8- 0.9. The cultures were induced with 1 mM IPTG for 8- 10 h at 20 °C. The bacteria were collected and resuspended in 50 mL PBS, and 1% Triton X-100 (v/v), 1% β-mercaptoethanol (v/v), PMSF (final concentration 1 mM) were added into the mixed solution. The bacterial cells were then harvested by centrifugation (4,700 g for 30 min at 4 °C) followed by ultrasonic breaking. The resulted solution was clarified by centrifugation at 13,800 g for 30 min. GST-beads was suspended to the supernatant and was gently shook for 1 hour to bind the protein. The resulted protein solution was centrifuged at 1,500 g for 5 min and the supernatant was discarded. At least 10-fold the volume of PBS was added to the pellet to sufficiently suspend the beads in the solution. Then the solution was clarified by centrifugation at 1,500 g for 5 min and the supernatant was discarded. The above steps were repeated twice. 1 mL GST elution buffer was added to the pellet and the solution was shaken gently for 30 min following by centrifugation at 1,500 g for 5 min. The supernatant was collected and was eluted with GST elution buffer at least twice. The supernatant was loaded onto SDS-PAGE electrophoresis to detect protein purity. The protein was stored in 20% glycerol at -80 °C.
Enzyme activity was measured by conversion of glutamine-4-amino-7-methylcounarine (H-Gln-AMC) to pyroglutamyl-AMC, which is subsequently a specific substrate for PGPEP I, releasing free AMC which can be fluorescently detected. For typical inhibition assay, 12.5 μL QPCTL protein (7 ng/μL) or QPCT protein (7 ng/μL) (MedChemExpress, Cat. #HY-P76560) and 2.5 μL of tested compounds with different concentrations were pipetted into a 384-well plate on ice. The reaction system was reacted in a shaker at 37 °C, 100 rpm for 10 minutes. Next, 10 μL fluorescent substrate H-Gln-AMC (500 μM) was added and incubated in 100 rpm for 20 min at 37 °C. […] Once done, the plate was moved over to TECAN Infinite 200PRO plate-reader to monitor and record the maximum fluorescence at 380nm excitation/ 460nm emission. The fluorescent signal value obtained was analyzed by Graphpad Prism 8.0 to obtain the inhibitory rate and IC50 of the compound.

CD47 = experiment: Overall cell surface CD47 (hCD47-B6H12 binding) in HEK293T and Raji cells; assay type: cell-based, human; conditions: 100 nM, 48 h
Experimental: (§1) Binding to cell surface CD47 was assessed by staining cells with fluorochrome-labeled antibodies clone CC2C6 (BioLegend, Cat. # 323102) and B6H12 (Abcam, Cat. # ab134485) to human CD47 at a dilution of 1:100 in PBS containing 1% FBS (FACS buffer) for 30 min on ice, while protected from light. SIRPα binding to CD47 was assessed by incubating cells with PE labeled recombinant human SIRPα/ CD172α Protein, Fc tag (ACRO Biosystems, Cat. # SIA-HP252) or PE labeled mouse SIRPα Protein, His tag (ACRO Biosystems, Cat. # SIA-MP2H6) for 1 hour on ice, while protected from light.

pGlu-CD47 [1] = experiment: Flow cytometry of pGlu-CD47 (hCD47-CC2C6 binding) in Raji cells; assay type: cell-based, human; conditions: 100 nM, 48 h
Experimental: as §1

pGlu-CD47 [2] = experiment: hCD47-CC2C6 binding to various cancer cells (H929, HCT116, Huh7, SKOV3, SU-DHL-8, T24, H1299, MCF-7); assay type: cell-based, human; conditions: 500 nM, 48 h
Experimental: as §1

CD47/SIRPα = experiment: Cell surface binding of human or mouse SIRPα protein to tumor cells (Raji, B16F10), flow cytometry; assay type: cell-based
Experimental: as §1

pGlu-CD47 [3] = experiment: Flow cytometry of pGlu-CD47 (hCD47-CC2C6 binding) in HEK293T cells; assay type: cell-based, human; conditions: for IC50: Homo sapiens, HEK-293T, treatment 48 h, read-out: IC50, dose-dependent inhibition of pGlu-CD47
Experimental: as §1

Structure (SMILES) | IC50 (QPCTL) [nM] | other results
Cn1cnnc1C1CCN(c2c(C#N)cccc2-c2cnccc2C(F)(F)F)CC1 [Compound 17] | 53.5 ± 11.8 | 
COc1ccncc1-c1cccc(C#N)c1N1CCC(c2nncn2C)CC1 [Compound 16] | > 1000 | 
Cn1cnnc1C1CCN(c2c(C#N)cccc2-c2ccc(N)nc2)CC1 [Compound 12] | 471 ± 244 | 
Cn1cnnc1C1CCN(c2c(C#N)cccc2-c2cncc(C#N)c2)CC1 [Compound 15] | 124 ± 9.8 | 
Cn1cnnc1C1CCN(c2c(C#N)cccc2-c2ccccc2)CC1 [Compound 6] | > 1000 | 
Cn1cnnc1C1CCN(c2c(C#N)cccc2-c2ccc(C#N)nc2)CC1 [Compound 11] | 417 ± 210 | 
Cn1cnnc1C1CCN(c2c(C#N)cccc2-c2ccc(F)nc2)CC1 [QP5020] |  | overall cell surface levels of CD47 (CD47): did not alter; inhibitory effect on CD47 pyroglutamation compared to SEN177 and PQ912 (pGlu-CD47 [1]): superior inhibitory effects; CD47 pyroglutamation in various types of cancer cells (pGlu-CD47 [2]): significantly attenuated; binding of human or mouse SIRPα protein to cell surface (CD47/SIRPα): significantly reduced; inhibitory effect on CD47 pyroglutamation compared to SEN177 and PQ912 (pGlu-CD47 [3]; 100 nM, 48 h): superior inhibitory effects; IC50 (pGlu-CD47 [3]): 6.4 ± 0.7 nM
Cn1cnnc1C1CCN(c2c(C#N)cccc2-c2cccnc2)CC1 [Compound 5] | 56.5 ± 11.3 | 
Cn1cnnc1C1CCN(c2c(C#N)cccc2-c2ccc(O)nc2)CC1 [Compound 20] | 187 ± 20.8 | 
Cc1noc(C)c1-c1cccc(C#N)c1N1CCC(c2nncn2C)CC1 [Compound 25] | > 1000 | 
N#Cc1cccc(-c2ccc(F)nc2)c1N1CCC(c2cnc[nH]2)CC1 [Compound 29] | > 1000 | 
Cn1cnnc1C1CCN(c2c(C#N)cccc2-c2ccn(C)c(=O)c2)CC1 [Compound 23] | 19.6 ± 12.5 | 
Cc1ccncc1-c1cccc(C#N)c1N1CCC(c2nncn2C)CC1 [Compound 18] | 74.5 ± 13.4 | 
CCCOc1ccc([C@H]2CNC(=O)N2c2ccc3[nH]cnc3c2)cc1 [PQ912, reference compound] | 51.8 ± 6.2 | IC50 (pGlu-CD47 [3]): 988 ± 409 nM
Cn1cnnc1C1CCN(c2c(C#N)cccc2-c2cncc(F)c2)CC1 [Compound 14] | 73.6 ± 11.5 | 
Cn1cnnc1C1CCN(c2c(C#N)cccc2-c2ccncc2)CC1 [Compound 7] | > 1000 | 
Cn1cnnc1C1CCN(c2c(C#N)cccc2-c2ccoc2)CC1 [Compound 24] | 135 ± 64.3 | 
Cn1cnnc1C1CCN(c2c(C#N)cccc2-c2cncnc2)CC1 [Compound 9] | 76.5 ± 21.3 | 
Cn1cnnc1C1CCN(c2ccccc2C#N)CC1 [Compound 8] | > 1000 | 
CC(C)n1cnnc1C1CCN(c2c(C#N)cccc2-c2ccc(F)nc2)CC1 [Compound 27] | > 1000 | 
COc1ccc(-c2cccc(C#N)c2N2CCC(c3nncn3C)CC2)cn1 [Compound 13] | 368 ± 82 | 
Cc1nnc(C2CCN(c3c(C#N)cccc3-c3ccc(F)nc3)CC2)n1C [Compound 26] | 94.3 ± 13.9 | 
Cn1cnnc1C1CCN(c2c(C#N)cccc2-c2cc[nH]c(=O)c2)CC1 [Compound 22] | 17.6 ± 6.2 | 
Cn1cnnc1C1CCN(c2c(C#N)cccc2-c2ccc(C(F)(F)F)nc2)CC1 [Compound 10] | > 1000 | 
Cn1cnnc1C1CCN(c2c(C#N)cccc2-c2cnccc2Cl)CC1 [Compound 19] | 105 ± 22.3 | 
Cn1cnnc1C1CCN(c2c(C#N)cccc2-c2ccc(=O)n(C)c2)CC1 [Compound 21] | 573 ± 85.5 | 
